Reference: US6790829B1, “Cyclic decapeptide antibiotics” (priority 1998, dated 2004)
Values after ≈ are worked out from the molar mass of the structure shown. Where a SMILES comes first, the peptide text is derived from it. [ ]: non-standard residue; d: D form. Orn = NCCC[C@H](N)C(=O)O

How the values were obtained:
[1] = test system: Enterococcus faecalis (13242); experiment: microbe, parasite or virus in culture; format: cell-based; conditions: for BROTH DILUTION MIC: 13242
Description: (§1) Antimicrobial activity was determined by macrobroth dilution antimicrobial susceptibility testing. Solutions of the cyclic decapeptides (Loloatin A, B and C) and a control (vancomycin) were prepared in tryptic soy broth. Initially, a 100 μg/ml solution of each compound was tested. When inhibition of target microorganism was detected, serial two-fold dilutions of the compound in broth were tested to determine the minimal inhibitory concentration (MIC) of each compound for each target organisms. Target organisms tested are listed below in Table 3, and included methicillin resistant Staphylococcus aureus, vancomycin resistant Enterococcus sp. Escherichia coli, multiply drug resistant Pseudomonas aeruginosa; Stenofrophomonas maltophilia and Candida albicans. Turbidity standardized suspensions of each organism were prepared according to accepted protocols using a 0.5 McFarland turbidity standard, and these standardized suspensions were used to inoculate the tubes containing the compounds. Activity of a compound was indicated by lack of growth (turbidity) of one or more of the target organisms. See Woods, G. L. and Washington, J. A., “Antibacterial susceptibility tests: dilution and disk diffusion methods, Manual of Clinical Microbiology (6th Ed.), Murray, Baron, Pfaller, Tenover and Yolken Eds.), ASM Press, Washington D.C., 1995, pp. 1327-1341. Other compounds of the invention may be screened and evaluated for antibiotic activity in the same manner.

[2] = test system: Enterococcus faecalis (ATCC51299); experiment: microbe, parasite or virus in culture; format: cell-based; conditions: for BROTH DILUTION MIC: ATCC51299
Description: as §1

[3] = test system: Enterococcus faecium (19007); experiment: microbe, parasite or virus in culture; format: cell-based; conditions: for BROTH DILUTION MIC: 19007
Description: as §1

[4] = test system: Enterococcus faecium (F4641); experiment: microbe, parasite or virus in culture; format: cell-based; conditions: for BROTH DILUTION MIC: F4641
Description: as §1

[5] = test system: Enterococcus gallinarum; experiment: microbe, parasite or virus in culture; format: cell-based
Description: as §1

[6] = test system: MRSA 034; experiment: In-vitro Microbiology of Fraction 73 (MIC/MBZ); format: cell-based, Staphylococcus aureus
Excerpt: (§2) The complex reaction mixture from Method C was chromatographed on reverse phase HPLC, and a microtiter plate assay was run throughout the entire chromatogram to identify active materials.

[7] = test system: P.a. 028; experiment: In-vitro Microbiology of Fraction 73 (MIC/MBZ); format: cell-based, Pseudomonas aeruginosa
Excerpt: as §2

[8] = test system: Candida albicans; format: cell-based
Description: (§3) Antimicrobial activity was determined by macrobroth dilution antimicrobial susceptibility testing. A solution of Loloatin B was prepared in tryptic soy broth. Initially, a […] solution of the peptide was tested. If inhibition of a target microorganism was detected, serial two-fold dilutions (in broth) of the Loloatin B solutions were tested to determine the minimal inhibitory concentration (MIC) of Loloatin B for each target organism Target organisms tested are identified in Table 2. Turbidity standardized suspensions of each organism were prepared according to accepted protocols using a 0.5 McFarland turbidity standard, and these standardized suspensions were used to inoculate a tube containing Loloatin B. Activity of Loloatin B was indicated by lack of growth (turbidity) of one or more of the target organisms.
(§4) See Woods, G. L. et al., “Antibacterial susceptibility tests: dilution and disk diffusion methods, Manual of Clinical Microbiology (6^thEd.), Murray, Baron, Pfaller, Tenover and Yolken (Eds.), ASM Press, Washington D.C., 1995, pp. 1327-1341.

[9] = test system: Enterobacter cloacae; format: cell-based
Description: as §3, §4

[10] = test system: Escherichia coli; format: cell-based
Description: as §3, §4

[11] = test system: Methicillin resistant Staphylococcus aureus; format: cell-based
Description: as §3, §4

[12] = test system: Penicillin resistant Streptococcus pneumoniae; format: cell-based
Description: as §3, §4

[13] = test system: Pseudomonas aeruginosa; format: cell-based
Description: as §3, §4

[14] = test system: Vancomycin resistant Enterococcus faecalis; format: cell-based
Description: as §3, §4

[15] = test system: Xanthomonas maltophilia; format: cell-based
Description: as §3, §4

[16] = test system: S. aureus (MRSA); format: cell-based, Staphylococcus aureus
Description: as §1

[17] = test system: Candida albicans; format: cell-based; remark: listed apart in the source
Description: as §1

[18] = test system: Enterobacter cloacae; format: cell-based; remark: listed apart in the source
Description: as §1

[19] = test system: Escherichia coli; format: cell-based; remark: listed apart in the source
Description: as §1

[20] = test system: Group A Streptococcus (19615); format: cell-based
Description: as §1

[21] = test system: Group B Streptococcus (12401); format: cell-based
Description: as §1

[22] = test system: Stenotrophomonas maltophilia; format: cell-based
Description: as §1

[23] = Microtiter plate assay of HPLC fractions to identify active materials; format: cell-based; conditions: reverse phase HPLC fractions of Method C cyclization mixture
Excerpt: as §2

[24] = test system: Pseudomonas aeruginosa; format: cell-based; remark: listed apart in the source
Description: as §1

[25] = Enterococcus faecium, read-out: BROTH DILUTION MIC

Row | Compound | BROTH DILUTION MIC [16] [µg/mL] | BROTH DILUTION MIC [1] [µg/mL] | BROTH DILUTION MIC [2] [µg/mL] | BROTH DILUTION MIC [3] [µg/mL] | BROTH DILUTION MIC [4] [µg/mL] | BROTH DILUTION MIC [5] [µg/mL] | BROTH DILUTION MIC [17] [µg/mL] | BROTH DILUTION MIC [18] [µg/mL] | BROTH DILUTION MIC [19] [µg/mL] | BROTH DILUTION MIC [20] [µg/mL] | BROTH DILUTION MIC [21] [µg/mL] | BROTH DILUTION MIC [22] [µg/mL] | BROTH DILUTION MIC [24] [µg/mL] | also measured
1 | CN[C@H](CC(C)C)C(=O)N[C@H]1C(=O)N[C@@H](CC(N)=O)C(=O)N[C@H]2C(=O)N[C@H]3C(=O)N[C@H](C(=O)N[C@H](C(=O)O)c4cc(O)cc(O)c4-c4cc3ccc4O)[C@H](O)c3ccc(c(Cl)c3)Oc3cc2cc(c3O[C@@H]2O[C@H](CO)[C@@H](O)[C@H](O)[C@H]2O[C@H]2C[C@](C)(N)[C@H](O)[C@H](C)O2)Oc2ccc(cc2Cl)[C@H]1O [Vancomycin, vancomycin, reference compound] | – | – | – | – | – | – | – | – | – | – | – | – | – | MIC ([1]; Enterococcus faecalis, read-out: BROTH DILUTION MIC): > 100 µg/mL; MIC ([2]; Enterococcus faecalis, ATCC51299, read-out: BROTH DILUTION MIC): 20 µg/mL (≈ 13.8 µM); MIC [3, 25]: > 100 µg/mL; MIC [4, 25]: 6 µg/mL (≈ 4.14 µM); MIC ([5]; Enterococcus gallinarum, GALLINARUM, read-out: BROTH DILUTION MIC): 6 µg/mL (≈ 4.14 µM)
2 | CC(C)C[C@@H]1NC(=O)[C@H](CCCN)NC(=O)[C@H](C(C)C)NC(=O)[C@H](Cc2c[nH]c3ccccc23)NC(=O)[C@H](CC(=O)O)NC(=O)[C@H](CC(N)=O)NC(=O)[C@@H](Cc2ccccc2)NC(=O)[C@H](Cc2ccccc2)NC(=O)[C@@H]2CCCN2C(=O)[C@@H](Cc2ccc(O)cc2)NC1=O [Loloatin B, cyclo [L-Val-L-Orn-L-Leu-D-Tyr-L-Pro-L-Phe-D-Phe-L-Asn-L-Asp-L-Trp]] (cyclo(V[Orn]L[dY]PF[dF]NDW)) | 2 to 4 | 2 to 4 | 2 to 4 | 2 to 4 | 2 to 4 | 2 to 4 | 16 | >100 | >100 | <0.25 | <1 | >100 | – | MBZ [6]: 8.0; MIC [6]: 8.0; MBZ [7]: >128; MIC [7]: >128; Minimum Inhibitory Concentration [8]: >100 µg/mL; Minimum Inhibitory Concentration [9]: >100 µg/mL; Minimum Inhibitory Concentration [10]: >100 µg/mL; Minimum Inhibitory Concentration [11]: <2 µg/mL; Minimum Inhibitory Concentration [12]: <2 µg/mL; Minimum Inhibitory Concentration [13]: >100 µg/mL; Minimum Inhibitory Concentration [14]: <2 µg/mL; Minimum Inhibitory Concentration [15]: >100 µg/mL; biological activity of HPLC fraction (in words) [23]: exhibited the desired biological activity
3 | CC(C)C[C@@H]1NC(=O)[C@H](CCCN)NC(=O)[C@H](C(C)C)NC(=O)[C@H](Cc2ccc(O)cc2)NC(=O)[C@H](CC(=O)O)NC(=O)[C@H](CC(N)=O)NC(=O)[C@@H](Cc2ccccc2)NC(=O)[C@H](Cc2ccccc2)NC(=O)[C@@H]2CCCN2C(=O)[C@@H](Cc2ccc(O)cc2)NC1=O [Loloatin A, cyclo[L-Val-L-Orn-L-Leu-D-Tyr-L-Pro-L-Phe-D-Phe-L-Asn-L-Asp-L-Tyr]] (cyclo(DYV[Orn]L[dY]PF[dF]N)) | 2 to 4 | 2 to 4 | 2 to 4 | 2 to 4 | 2 to 4 | 2 to 4 | 16 | >100 | >100 | <0.25 | <1 | >100 | >100 | –
4 | CC(C)C[C@@H]1NC(=O)[C@H](CCCN)NC(=O)[C@H](C(C)C)NC(=O)[C@H](Cc2c[nH]c3ccccc23)NC(=O)[C@H](CC(=O)O)NC(=O)[C@H](CC(N)=O)NC(=O)[C@@H](Cc2ccccc2)NC(=O)[C@H](Cc2c[nH]c3ccccc23)NC(=O)[C@@H]2CCCN2C(=O)[C@@H](Cc2ccc(O)cc2)NC1=O [Loloatin C, cyclo [L-Val-L-Orn-L-Leu-D-Tyr-L-Pro-L-Trp-D-Phe-L-Asn-L-Asp-L-Trp]] (cyclo(DWV[Orn]L[dY]PW[dF]N)) | 0.5 to 1 | 1 to 2 | 2 to 4 | 2 | 2 | 1 to 2 | 16 | >100 | 1 to 2 | <0.25 | <0.25 | >100 | >100 | activity against Escherichia coli (in words) ([19]; Escherichia coli, a gram negative rod bacteria, comment on Table 3): excellent activity
